Test results published in publication PMC9501548, “Synthesis of Potential Antiviral Agents for SARS-CoV-2 Using Molecular Hybridization Approach” (Molecules, 2022).
pIC50: −log10 of the molar value. Values joined by “and” are separate entries in the source; they are usually repeats but may differ in a detail not shown here. Identical values can stand only once. Like-named read-outs stand apart in the source and are kept apart here.

Columns and labels:
in vitro = details: Chlorocebus aethiops (African green monkey)
[1] = system: SARS-CoV-2 (hCoV-19/Egypt/NRC-03/2020); assay: Anti-SARS-CoV-2 IC50 determination in Vero-E6 cells (inhibition of virus-induced cytopathic effect, crystal violet); type: cell-based; details: for IC50: Severe acute respiratory syndrome coronavirus 2, Vero C1008, SARS-CoV-2 in Vero-E6 cells, 72 h, CPE reduction; for SI: selectivity index, ratio of CC50 relative to IC50
VERO-E6 cells = system: VERO-E6 cells; parameters: method as in PMID 34775204; details: standard reference; cited from earlier work
[2] = system: SARS-CoV-2 (hCoV-19/Egypt/NRC-03/2020); parameters: method as in PMID 34775204; details: standard reference, cited from earlier work

O=C1C(=Cc2cn(CCCCOc3cc(C(F)(F)F)nc4ccc(F)cc34)c3ccccc23)SC(=S)N1CCc1ccccc1 (mixture of isomers) [9e, (E/Z)-5-((1-(4-((6-Fluoro-2-(trifluoromethyl)quinolin-4-yl)oxy)butyl)-1H-indol-3-yl)methylene)-3-phenethyl-2-thioxothiazolidin-4-one]
melting point: 160 to 162 °C
CC50 at 24 h (in vitro): 305 µg/mL and 469 µM
IC50 [1]: 276 µg/mL and 424 µM
SI [1]: 1.1

Cc1ccc2nc(C(F)(F)F)cc(OCCCn3cc(C=C4SC(=S)N(CCc5ccccc5)C4=O)c4ccccc43)c2c1 (mixture of isomers) [9c, (E/Z)-5-((1-(3-((6-Methyl-2-(trifluoromethyl)quinolin-4-yl)oxy)propyl)-1H-indol-3-yl)methylene)-3-phenethyl-2-thioxothiazolidin-4-one]
melting point: 182 to 184 °C
CC50 at 24 h (in vitro): 310 µg/mL

CCN(CCO)CCCC(C)Nc1ccnc2cc(Cl)ccc12 (stereo not shown) [Hydroxychloroquine]
CC50 (VERO-E6 cells): 356 µM
pIC50 ([2]; anti-SARS-CoV-2): 4.53
SI ([2]; ratio of CC50 relative to IC50): 12.2

O=C1C(=Cc2cn(CCCCOc3cc(C(F)(F)F)nc4ccccc34)c3ccccc23)SC(=S)N1CCc1ccccc1 (mixture of isomers) [9d, (E/Z)-3-Phenethyl-2-thioxo-5-((1-(4-((2-(trifluoromethyl)quinolin-4-yl)oxy)butyl)-1H-indol-3-yl)methylene)thiazolidin-4-one]
melting point: 157 to 159 °C
CC50 at 24 h (in vitro): 294 µg/mL and 465 µM
IC50 [1]: 257 µg/mL and 407 µM
SI [1]: 1.1

O=C1C(=Cc2cn(C/C=C/COc3cc(C(F)(F)F)nc4ccccc34)c3ccccc23)SC(=S)N1CCc1ccccc1 (mixture of isomers) [10a, (E/Z)-3-Phenethyl-2-thioxo-5-((1-((E)-4-((2-(trifluoromethyl)quinolin-4-yl)oxy)but-2-en-1-yl)-1H-indol-3-yl)methylene)thiazolidin-4-one]
melting point: 179 to 181 °C
CC50 at 24 h (in vitro): 370 µg/mL

O=C1C(=Cc2cn(CCCCCCOc3cc(C(F)(F)F)nc4ccc(F)cc34)c3ccccc23)SC(=S)N1CCc1ccccc1 (mixture of isomers) [9i, (E/Z)-5-((1-(6-((6-Fluoro-2-(trifluoromethyl)quinolin-4-yl)oxy)hexyl)-1H-indol-3-yl)methylene)-3-phenethyl-2-thioxothiazolidin-4-one]
melting point: 185 to 187 °C
CC50 at 24 h (in vitro): 262 µg/mL

O=C1C(=Cc2cn(CCCOc3cc(C(F)(F)F)nc4ccccc34)c3ccccc23)SC(=S)N1CCc1ccccc1 (mixture of isomers) [9a, (E/Z)-3-Phenethyl-2-thioxo-5-((1-(3-((2-(trifluoromethyl)quinolin-4-yl)oxy)propyl)-1H-indol-3-yl)methylene)thiazolidin-4-one]
melting point: 185 to 187 °C
CC50 at 24 h (in vitro): 210 µg/mL

O=C1C(=Cc2cn(CCCCCCOc3cc(C(F)(F)F)nc4ccccc34)c3ccccc23)SC(=S)N1CCc1ccccc1 (mixture of isomers) [9h, (E/Z)-3-Phenethyl-2-thioxo-5-((1-(6-((2-(trifluoromethyl)quinolin-4-yl)oxy)hexyl)-1H-indol-3-yl)methylene)thiazolidin-4-one]
melting point: 180 to 182 °C
CC50 at 24 h (in vitro): 258 µg/mL

O=C1C(=Cc2cn(CCCCCCOc3cc(C(F)(F)F)nc4ccc(Cl)cc34)c3ccccc23)SC(=S)N1CCc1ccccc1 (mixture of isomers) [9j, (E/Z)-5-((1-(6-((6-Chloro-2-(trifluoromethyl)quinolin-4-yl)oxy)hexyl)-1H-indol-3-yl)methylene)-3-phenethyl-2-thioxothiazolidin-4-one]
melting point: 184 to 186 °C
CC50 at 24 h (in vitro): 380 µg/mL

O=C1C(=Cc2cn(CCCCOc3cc(C(F)(F)F)nc4ccc(Cl)cc34)c3ccccc23)SC(=S)N1CCc1ccccc1 (mixture of isomers) [9f, (E/Z)-5-((1-(4-((6-Chloro-2-(trifluoromethyl)quinolin-4-yl)oxy)butyl)-1H-indol-3-yl)methylene)-3-phenethyl-2-thioxothiazolidin-4-one]
melting point: 181 to 183 °C
CC50 at 24 h (in vitro): 370 µg/mL and 555 µM
IC50 [1]: 109 µg/mL and 164 µM
SI [1]: 3.4

Cc1ccc2nc(C(F)(F)F)cc(OC/C=C/Cn3cc(C=C4SC(=S)N(CCc5ccccc5)C4=O)c4ccccc43)c2c1 (mixture of isomers) [10b, (E/Z)-5-((1-((E)-4-((6-Methyl-2-(trifluoromethyl)quinolin-4-yl)oxy)but-2-en-1-yl)-1H-indol-3-yl)methylene)-3-phenethyl-2-thioxothiazolidin-4-one]
melting point: 168 to 170 °C
CC50 at 24 h (in vitro): 290 µg/mL

Cc1ccc2nc(C(F)(F)F)cc(OCCCCCCn3cc(C=C4SC(=S)N(CCc5ccccc5)C4=O)c4ccccc43)c2c1 (mixture of isomers) [9k, (E/Z)-5-((1-(6-((6-Methyl-2-(trifluoromethyl)quinolin-4-yl)oxy)hexyl)-1H-indol-3-yl)methylene)-3-phenethyl-2-thioxothiazolidin-4-one]
melting point: 148 to 150 °C
CC50 at 24 h (in vitro): 201 µg/mL and 299 µM
IC50 [1]: 160 µg/mL and 238 µM
SI [1]: 1.3

O=C1C(=Cc2cn(CCCOc3cc(C(F)(F)F)nc4ccc(Cl)cc34)c3ccccc23)SC(=S)N1CCc1ccccc1 (mixture of isomers) [9b, (E/Z)-5-((1-(3-((6-Chloro-2-(trifluoromethyl)quinolin-4-yl)oxy)propyl)-1H-indol-3-yl)methylene)-3-phenethyl-2-thioxothiazolidin-4-one]
melting point: 176 to 179 °C
CC50 at 24 h (in vitro): 227 µg/mL

Cc1ccc2nc(C(F)(F)F)cc(OCCCCn3cc(C=C4SC(=S)N(CCc5ccccc5)C4=O)c4ccccc43)c2c1 (mixture of isomers) [9g, (E/Z)-5-((1-(4-((6-Methyl-2-(trifluoromethyl)quinolin-4-yl)oxy)butyl)-1H-indol-3-yl)methylene)-3-phenethyl-2-thioxothiazolidin-4-one]
melting point: 175 to 177 °C
CC50 at 24 h (in vitro): 591 µg/mL
